Tests used:
Conditions in all cases: Compound concentration 10.0 uM
[1] = molecular target: BMP-2-inducible protein kinase (Homo sapiens) (UniProt Q9NSY1); assay: Inhibition of BIKe(h) at 10.0 µM in the Eurofins Kinase panel
[2] = molecular target: Casein kinase 2 (Homo sapiens) (UniProt P67870+P68400+P19784+Q8NEV1); assay: Inhibition of CK2(h) at 10.0 µM in the Eurofins Kinase panel; type: protein assay
[3] = molecular target: Serine/threonine-protein kinase DCLK3 (Homo sapiens) (UniProt Q9C098); assay: Inhibition of DCAMKL3(h) at 10.0 µM in the Eurofins Kinase panel
[4] = molecular target: Rhodopsin kinase GRK1 (Homo sapiens) (UniProt Q15835); assay: Inhibition of GRK1(h) at 10.0 µM in the Eurofins Kinase panel
[5] = molecular target: Tyrosine-protein kinase HCK (Homo sapiens) (UniProt P08631); assay: Inhibition of Hck(h) activated at 10.0 µM in the Eurofins Kinase panel
[6] = molecular target: Homeodomain-interacting protein kinase 4 (Homo sapiens) (UniProt Q8NE63); assay: Inhibition of HIPK4(h) at 10.0 µM in the Eurofins Kinase panel
[7] = molecular target: Tyrosine-protein kinase JAK1 (Homo sapiens) (UniProt P23458); assay: Inhibition of JAK1(h) at 10.0 µM in the Eurofins Kinase panel
[8] = molecular target: Vascular endothelial growth factor receptor 2 (Homo sapiens) (UniProt P35968); assay: Inhibition of KDR(h) at 10.0 µM in the Eurofins Kinase panel
[9] = molecular target: Muscle, skeletal receptor tyrosine-protein kinase (Homo sapiens) (UniProt O15146); assay: Inhibition of MuSK(h) at 10.0 µM in the Eurofins Kinase panel
[10] = molecular target: Serine/threonine-protein kinase Nek7 (Homo sapiens) (UniProt Q8TDX7); assay: Inhibition of NEK7(h) at 10.0 µM in the Eurofins Kinase panel
[11] = molecular target: NUAK family SNF1-like kinase 2 (Homo sapiens) (UniProt Q9H093); assay: Inhibition of NUAK2(h) at 10.0 µM in the Eurofins Kinase panel
[12] = molecular target: Platelet-derived growth factor receptor beta (Homo sapiens) (UniProt P09619); assay: Inhibition of PDGFRbeta(h) at 10.0 µM in the Eurofins Kinase panel
[13] = molecular target: Eukaryotic translation initiation factor 2-alpha kinase 3 (Homo sapiens) (UniProt Q9NZJ5); assay: Inhibition of PEK(h) at 10.0 µM in the Eurofins Kinase panel
[14] = molecular target: Mitogen-activated protein kinase 12 (Homo sapiens) (UniProt P53778); assay: Inhibition of SAPK3(h) at 10.0 µM in the Eurofins Kinase panel
[15] = molecular target: Serine/threonine-protein kinase 33 (Homo sapiens) (UniProt Q9BYT3); assay: Inhibition of STK33(h) at 10.0 µM in the Eurofins Kinase panel
[16] = molecular target: Mitogen-activated protein kinase kinase kinase 7 (Homo sapiens) (UniProt O43318); assay: Inhibition of TAK1(h) at 10.0 µM in the Eurofins Kinase panel
[17] = molecular target: Serine/threonine-protein kinase TBK1 (Homo sapiens) (UniProt Q9UHD2); assay: Inhibition of TBK1(h) at 10.0 µM in the Eurofins Kinase panel
[18] = molecular target: Serine/threonine-protein kinase WNK1 (Homo sapiens) (UniProt Q9H4A3); assay: Inhibition of WNK1(h) at 10.0 µM in the Eurofins Kinase panel
[19] = molecular target: 5-hydroxytryptamine receptor 7 (Homo sapiens) (UniProt P34969)
[20] = molecular target: Alpha-1B adrenergic receptor (Homo sapiens) (UniProt P35368)
[21] = molecular target: T1, Alpha-2A adrenergic receptor (Homo sapiens) (UniProt P08913)
T1 sequence (whole entry): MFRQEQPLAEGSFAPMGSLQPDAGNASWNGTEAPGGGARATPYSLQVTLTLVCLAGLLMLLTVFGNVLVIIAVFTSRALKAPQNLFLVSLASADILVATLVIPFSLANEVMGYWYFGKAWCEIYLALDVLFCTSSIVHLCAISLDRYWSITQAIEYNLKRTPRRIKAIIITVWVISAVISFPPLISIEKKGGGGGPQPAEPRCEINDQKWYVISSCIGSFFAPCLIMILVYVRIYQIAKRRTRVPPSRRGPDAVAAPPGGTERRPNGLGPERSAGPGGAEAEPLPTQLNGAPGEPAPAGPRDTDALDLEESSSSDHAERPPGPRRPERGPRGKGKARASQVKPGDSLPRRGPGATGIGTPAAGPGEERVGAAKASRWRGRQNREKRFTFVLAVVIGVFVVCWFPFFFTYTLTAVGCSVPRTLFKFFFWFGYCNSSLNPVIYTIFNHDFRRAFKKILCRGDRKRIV

[22] = molecular target: T2, Muscarinic acetylcholine receptor M2 (Homo sapiens) (UniProt P08172)
T2 sequence (whole entry): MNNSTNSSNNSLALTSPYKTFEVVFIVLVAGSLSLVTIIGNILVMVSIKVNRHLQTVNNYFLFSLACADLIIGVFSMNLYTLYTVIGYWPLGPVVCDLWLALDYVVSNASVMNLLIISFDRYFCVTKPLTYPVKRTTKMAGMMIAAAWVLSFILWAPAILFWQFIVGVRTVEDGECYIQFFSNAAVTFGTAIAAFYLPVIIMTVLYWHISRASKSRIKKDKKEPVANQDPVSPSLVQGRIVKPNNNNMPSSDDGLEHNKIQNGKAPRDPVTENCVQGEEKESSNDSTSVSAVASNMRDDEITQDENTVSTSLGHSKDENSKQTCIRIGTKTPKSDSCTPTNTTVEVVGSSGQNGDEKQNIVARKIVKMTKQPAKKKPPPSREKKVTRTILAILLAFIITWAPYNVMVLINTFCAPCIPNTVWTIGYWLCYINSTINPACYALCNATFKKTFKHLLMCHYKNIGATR

[23] = molecular target: Beta-3 adrenergic receptor (Homo sapiens) (UniProt P13945)
[24] = molecular target: Sodium-dependent serotonin transporter (Homo sapiens) (UniProt P31645)
[25] = molecular target: 3-phosphoinositide-dependent protein kinase 1 (Homo sapiens) (UniProt O15530); assay: Inhibition of PDK1(h) at 10.0 µM in the Eurofins Kinase panel

Sequence of Alpha-1B adrenergic receptor (Homo sapiens) (P35368 whole entry): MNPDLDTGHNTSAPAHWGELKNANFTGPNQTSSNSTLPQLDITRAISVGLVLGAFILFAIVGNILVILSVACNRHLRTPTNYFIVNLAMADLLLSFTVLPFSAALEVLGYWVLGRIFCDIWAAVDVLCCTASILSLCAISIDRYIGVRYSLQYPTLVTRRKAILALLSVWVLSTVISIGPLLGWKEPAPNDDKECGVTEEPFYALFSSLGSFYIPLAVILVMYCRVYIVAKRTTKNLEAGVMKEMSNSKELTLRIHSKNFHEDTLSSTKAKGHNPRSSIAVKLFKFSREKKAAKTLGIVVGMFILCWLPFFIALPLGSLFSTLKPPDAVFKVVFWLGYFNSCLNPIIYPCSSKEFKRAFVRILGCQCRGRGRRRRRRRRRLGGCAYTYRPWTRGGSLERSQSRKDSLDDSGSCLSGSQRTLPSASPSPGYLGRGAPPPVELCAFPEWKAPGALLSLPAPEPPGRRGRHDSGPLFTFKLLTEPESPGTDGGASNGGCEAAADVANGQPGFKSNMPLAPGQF
Sequence of 5-hydroxytryptamine receptor 7 (Homo sapiens) (P34969 whole entry): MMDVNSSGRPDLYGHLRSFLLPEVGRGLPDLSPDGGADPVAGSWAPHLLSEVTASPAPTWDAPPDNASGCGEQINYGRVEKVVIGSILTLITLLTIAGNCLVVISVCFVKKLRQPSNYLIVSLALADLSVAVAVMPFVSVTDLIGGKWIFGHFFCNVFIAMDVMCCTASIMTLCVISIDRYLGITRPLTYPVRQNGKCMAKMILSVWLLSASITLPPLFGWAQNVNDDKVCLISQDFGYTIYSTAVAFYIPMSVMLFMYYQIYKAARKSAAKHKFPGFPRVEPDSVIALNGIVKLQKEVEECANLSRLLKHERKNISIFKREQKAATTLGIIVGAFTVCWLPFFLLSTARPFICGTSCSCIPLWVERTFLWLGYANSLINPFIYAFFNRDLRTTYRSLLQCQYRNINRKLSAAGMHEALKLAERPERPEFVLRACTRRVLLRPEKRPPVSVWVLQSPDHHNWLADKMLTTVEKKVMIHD
Sequence of Beta-3 adrenergic receptor (Homo sapiens) (P13945 whole entry, looked up): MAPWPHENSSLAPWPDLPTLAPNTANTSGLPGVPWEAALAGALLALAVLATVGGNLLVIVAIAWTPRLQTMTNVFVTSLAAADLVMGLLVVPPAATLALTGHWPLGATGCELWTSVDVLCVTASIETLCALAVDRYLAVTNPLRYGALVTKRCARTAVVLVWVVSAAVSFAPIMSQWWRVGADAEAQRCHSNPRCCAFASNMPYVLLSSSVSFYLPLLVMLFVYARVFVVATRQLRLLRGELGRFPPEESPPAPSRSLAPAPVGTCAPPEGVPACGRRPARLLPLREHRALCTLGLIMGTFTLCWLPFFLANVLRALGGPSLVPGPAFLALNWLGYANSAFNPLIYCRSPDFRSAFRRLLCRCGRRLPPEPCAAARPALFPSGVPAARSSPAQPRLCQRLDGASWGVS
Sequence of NUAK family SNF1-like kinase 2 (Homo sapiens) (Q9H093 whole entry): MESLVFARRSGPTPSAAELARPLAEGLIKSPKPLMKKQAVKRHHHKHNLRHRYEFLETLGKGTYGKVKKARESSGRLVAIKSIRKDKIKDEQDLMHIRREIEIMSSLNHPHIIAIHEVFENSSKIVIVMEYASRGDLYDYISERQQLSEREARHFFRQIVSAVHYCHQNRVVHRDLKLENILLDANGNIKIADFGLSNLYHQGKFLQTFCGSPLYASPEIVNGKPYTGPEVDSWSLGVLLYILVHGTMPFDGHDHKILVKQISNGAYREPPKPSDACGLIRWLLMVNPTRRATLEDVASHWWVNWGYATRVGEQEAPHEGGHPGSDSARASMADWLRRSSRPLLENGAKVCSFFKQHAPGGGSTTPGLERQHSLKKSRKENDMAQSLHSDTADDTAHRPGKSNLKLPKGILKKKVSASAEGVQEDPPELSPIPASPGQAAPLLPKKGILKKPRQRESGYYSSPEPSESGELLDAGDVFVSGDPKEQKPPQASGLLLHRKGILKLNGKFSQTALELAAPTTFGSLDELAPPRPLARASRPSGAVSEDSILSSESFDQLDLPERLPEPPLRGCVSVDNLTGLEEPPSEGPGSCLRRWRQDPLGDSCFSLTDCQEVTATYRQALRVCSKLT
Sequence of Serine/threonine-protein kinase TBK1 (Homo sapiens) (Q9UHD2 whole entry): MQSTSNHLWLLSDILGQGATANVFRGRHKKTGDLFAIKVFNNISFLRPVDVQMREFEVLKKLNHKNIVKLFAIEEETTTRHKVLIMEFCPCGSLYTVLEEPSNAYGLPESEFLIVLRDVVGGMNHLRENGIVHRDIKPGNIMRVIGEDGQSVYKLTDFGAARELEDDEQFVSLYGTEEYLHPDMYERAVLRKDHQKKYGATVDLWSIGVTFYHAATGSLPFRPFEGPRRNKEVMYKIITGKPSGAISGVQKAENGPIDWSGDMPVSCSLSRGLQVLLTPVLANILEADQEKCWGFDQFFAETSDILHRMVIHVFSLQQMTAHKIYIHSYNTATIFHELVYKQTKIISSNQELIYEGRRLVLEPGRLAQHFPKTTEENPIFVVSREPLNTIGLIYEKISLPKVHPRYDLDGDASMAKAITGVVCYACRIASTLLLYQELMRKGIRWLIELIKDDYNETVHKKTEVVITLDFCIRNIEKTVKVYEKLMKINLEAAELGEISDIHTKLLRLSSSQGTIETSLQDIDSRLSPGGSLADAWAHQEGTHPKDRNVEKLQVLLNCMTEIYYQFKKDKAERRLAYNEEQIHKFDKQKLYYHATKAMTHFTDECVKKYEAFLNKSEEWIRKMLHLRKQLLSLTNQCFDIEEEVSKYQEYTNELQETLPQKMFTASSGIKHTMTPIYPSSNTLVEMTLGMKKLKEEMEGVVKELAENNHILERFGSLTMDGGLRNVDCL
Sequence of Rhodopsin kinase GRK1 (Homo sapiens) (Q15835 whole entry): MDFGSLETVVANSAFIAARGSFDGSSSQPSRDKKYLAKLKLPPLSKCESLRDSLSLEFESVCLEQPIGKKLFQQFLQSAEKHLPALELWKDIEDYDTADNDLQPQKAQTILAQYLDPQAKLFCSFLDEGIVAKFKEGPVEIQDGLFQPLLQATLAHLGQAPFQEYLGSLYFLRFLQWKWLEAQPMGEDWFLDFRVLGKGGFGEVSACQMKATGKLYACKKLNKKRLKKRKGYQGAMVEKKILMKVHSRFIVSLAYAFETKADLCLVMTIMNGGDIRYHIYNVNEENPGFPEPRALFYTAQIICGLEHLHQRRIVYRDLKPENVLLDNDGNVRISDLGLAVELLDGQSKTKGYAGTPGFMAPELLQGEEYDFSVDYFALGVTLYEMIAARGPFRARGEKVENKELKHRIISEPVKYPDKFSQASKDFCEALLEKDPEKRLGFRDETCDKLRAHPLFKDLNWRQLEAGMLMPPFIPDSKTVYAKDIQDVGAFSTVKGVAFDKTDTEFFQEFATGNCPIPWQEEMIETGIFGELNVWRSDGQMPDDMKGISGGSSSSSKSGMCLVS
Sequence of Eukaryotic translation initiation factor 2-alpha kinase 3 (Homo sapiens) (Q9NZJ5 whole entry): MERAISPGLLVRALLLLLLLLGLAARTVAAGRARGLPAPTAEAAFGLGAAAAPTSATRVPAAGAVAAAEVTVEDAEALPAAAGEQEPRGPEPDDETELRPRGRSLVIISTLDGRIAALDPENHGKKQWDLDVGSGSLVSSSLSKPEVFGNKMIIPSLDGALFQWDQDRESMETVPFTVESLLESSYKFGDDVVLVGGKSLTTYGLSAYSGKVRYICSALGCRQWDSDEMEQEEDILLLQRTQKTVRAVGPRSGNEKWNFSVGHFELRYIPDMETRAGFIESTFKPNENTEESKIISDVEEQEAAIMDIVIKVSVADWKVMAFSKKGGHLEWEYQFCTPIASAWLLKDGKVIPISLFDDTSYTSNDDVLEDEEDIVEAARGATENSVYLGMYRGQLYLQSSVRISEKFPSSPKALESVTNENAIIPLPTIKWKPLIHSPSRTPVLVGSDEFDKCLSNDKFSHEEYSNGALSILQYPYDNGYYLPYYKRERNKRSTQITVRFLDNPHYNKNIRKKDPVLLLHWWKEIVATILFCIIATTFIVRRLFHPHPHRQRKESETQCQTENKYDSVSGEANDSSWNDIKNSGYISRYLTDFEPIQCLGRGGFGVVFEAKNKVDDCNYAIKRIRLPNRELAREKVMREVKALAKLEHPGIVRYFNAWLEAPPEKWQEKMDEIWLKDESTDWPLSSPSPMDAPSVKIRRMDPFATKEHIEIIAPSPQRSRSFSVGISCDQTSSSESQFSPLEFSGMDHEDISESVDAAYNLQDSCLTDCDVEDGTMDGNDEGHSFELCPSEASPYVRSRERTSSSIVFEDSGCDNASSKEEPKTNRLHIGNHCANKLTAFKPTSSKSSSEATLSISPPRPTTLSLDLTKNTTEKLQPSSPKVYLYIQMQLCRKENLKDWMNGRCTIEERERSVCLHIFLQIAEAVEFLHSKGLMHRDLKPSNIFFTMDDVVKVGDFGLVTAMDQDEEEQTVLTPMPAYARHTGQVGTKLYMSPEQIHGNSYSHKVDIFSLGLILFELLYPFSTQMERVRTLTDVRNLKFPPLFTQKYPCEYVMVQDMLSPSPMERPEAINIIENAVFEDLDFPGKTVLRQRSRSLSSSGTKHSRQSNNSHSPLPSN
Sequence of Tyrosine-protein kinase HCK (Homo sapiens) (P08631 2-526 limits assumed): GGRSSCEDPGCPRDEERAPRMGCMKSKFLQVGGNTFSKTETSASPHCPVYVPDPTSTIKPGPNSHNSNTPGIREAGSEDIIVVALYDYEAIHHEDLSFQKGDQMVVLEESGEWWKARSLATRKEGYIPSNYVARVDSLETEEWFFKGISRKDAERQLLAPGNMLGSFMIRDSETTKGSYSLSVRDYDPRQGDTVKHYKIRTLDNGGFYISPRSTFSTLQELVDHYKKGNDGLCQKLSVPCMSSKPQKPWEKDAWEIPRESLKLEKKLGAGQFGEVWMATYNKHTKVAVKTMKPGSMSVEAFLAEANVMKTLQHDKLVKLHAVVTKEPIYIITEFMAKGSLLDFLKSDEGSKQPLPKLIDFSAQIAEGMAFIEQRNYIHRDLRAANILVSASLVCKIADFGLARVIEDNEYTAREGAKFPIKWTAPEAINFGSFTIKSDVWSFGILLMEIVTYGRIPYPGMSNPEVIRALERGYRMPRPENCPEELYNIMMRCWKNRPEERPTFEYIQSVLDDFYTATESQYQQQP

| Structure (SMILES) | inhibition [1] [%] | inhibition [2] [%] | inhibition [3] [%] | inhibition [4] [%] | inhibition [5] [%] | inhibition [6] [%] | inhibition [7] [%] | inhibition [8] [%] | inhibition [9] [%] | inhibition [10] [%] | inhibition [11] [%] | inhibition [12] [%] | inhibition [13] [%] | inhibition [14] [%] | inhibition [15] [%] | inhibition [16] [%] | inhibition [17] [%] | inhibition [18] [%] | inhibition [19] [%] | inhibition [20] [%] | other results |
| --- | --- | --- | --- | --- | --- | --- | --- | --- | --- | --- | --- | --- | --- | --- | --- | --- | --- | --- | --- | --- | --- |
| O=c1n(Cc2cncn2-c2cccc(Cl)c2)nc(-c2ccc(Cl)cc2)n1C[C@H](O)C(F)(F)F | -1.55 | -3.37 | -6.07 | -8.45 | -9.4 | 4.55 | 8.74 | -2.77 | 0.19 | 1.5 | -1.01 | -9.1 | -1.49 | -3.96 | 6.15 | -1.55 | 7.19 | -5.38 | -2 | -2.47 | inhibition [21]: -3.35%; inhibition [22]: -9.34%; inhibition [23]: -0.32%; inhibition [24]: 1%; inhibition [25]: -8.39% |
| C[C@H](O)c1nc(Cn2nc(-c3ccc(Cl)cc3)n(C[C@H](O)C(F)(F)F)c2=O)nn1-c1cccc(Cl)c1 [PECAVAPTAN] | -0.71 | 5.37 | -4.82 | 6.58 | -3.97 | -3.59 | -1.72 | 1.28 | -2.36 | 3.8 | 4.99 | -5.19 | 1.82 | -0.09 | 6.36 | -6.39 | -2.96 | 6.35 | 17.6 | -5.25 | inhibition [21]: 8.06%; inhibition [22]: 4.65%; inhibition [23]: -1.97%; inhibition [24]: 6%; inhibition [25]: -3.55% |
